Experimental data from the supplement of paper PMC10307832.

Columns and labels:
Experiment in all cases: relative viability (nuclei count vs DMSO), 5 days (fraction); higher = more cells survive
VX-11e = compound: CC1=CN=C(N=C1C2=CNC(=C2)C(=O)N[C@H](CO)C3=CC(=CC=C3)Cl)NC4=C(C=C(C=C4)F)Cl [VX-11e]
Procedure, shortened: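 Lung cancer cell lines in 1536-well plates were exposed by pinning to five library-drug doses (not always all listed) √10 apart, following an overnight hold at 37 °C. MetaXpress counted Hoechst-stained nuclei from 4× images taken after 5 days without medium change. Viability is the median ratio of treated-well to vehicle-well nuclei across plates. Plates required control CV below 25% and at least one doubling.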

VX-11e + Palbociclib = compound: CC1=CN=C(N=C1C2=CNC(=C2)C(=O)N[C@H](CO)C3=CC(=CC=C3)Cl)NC4=C(C=C(C=C4)F)Cl [VX-11e] + CC(=O)c1c(C)c2cnc(Nc3ccc(N4CCNCC4)cn3)nc2n(C2CCCC2)c1=O [Palbociclib] (partner 0.5 µM)
Procedure, shortened: (§1)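 Values are medians from duplicate plates. Each reflects relative viability, defined as the nuclei count of treated wells over that of vehicle wells. Lung cancer cell lines in 1536-well plates were pin-tool dosed one day after seeding with one drug alone or with a fixed anchor-drug dose plus five library-drug doses (not always all listed) in √10 steps, then fixed, stained and imaged at 4× after 5 days.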

VX-11e + Foretinib = compound: CC1=CN=C(N=C1C2=CNC(=C2)C(=O)N[C@H](CO)C3=CC(=CC=C3)Cl)NC4=C(C=C(C=C4)F)Cl [VX-11e] + COc1cc2c(Oc3ccc(NC(=O)C4(C(=O)Nc5ccc(F)cc5)CC4)cc3F)ccnc2cc1OCCCN1CCOCC1 [Foretinib] (partner 0.25 µM)
Procedure, shortened: as §1

VX-11e + OSI-027 = compound: CC1=CN=C(N=C1C2=CNC(=C2)C(=O)N[C@H](CO)C3=CC(=CC=C3)Cl)NC4=C(C=C(C=C4)F)Cl [VX-11e] + COc1cccc2cc(-c3nc([C@H]4CC[C@H](C(=O)O)CC4)n4ncnc(N)c34)[nH]c12 [OSI-027] (partner 0.5 µM)
Procedure, shortened: as §1

For SK-LU-1, the relative viability (VX-11e; 0.04 µM) was 1.09, the relative viability (VX-11e; 0.1265 µM) was 0.928 and the relative viability (VX-11e; 0.4 µM) was 0.831. The relative viability (VX-11e; 1.265 µM) was 0.911, the relative viability (VX-11e; 4 µM) was 0.346 and the relative viability (VX-11e + Palbociclib; first compound 0.04 µM) was 0.399. It also gave a relative viability (VX-11e + Palbociclib; first compound 0.1265 µM) of 0.355, a relative viability (VX-11e + Palbociclib; first compound 0.4 µM) of 0.325 and a relative viability (VX-11e + Palbociclib; first compound 1.265 µM) of 0.365. The relative viability (VX-11e + Palbociclib; first compound 4 µM) was 0.236, the relative viability (VX-11e + Foretinib; first compound 0.04 µM) was 0.882 and the relative viability (VX-11e + Foretinib; first compound 0.1265 µM) was 0.779. For the same cell line, the relative viability (VX-11e + Foretinib; first compound 1.265 µM) was 0.574, the relative viability (VX-11e + Foretinib; first compound 4 µM) was 0.224 and the relative viability (VX-11e + OSI-027; first compound 0.04 µM) was 0.285. For the same cell line, the relative viability (VX-11e + OSI-027; first compound 0.1265 µM) was 0.352, the relative viability (VX-11e + OSI-027; first compound 1.265 µM) was 0.233 and the relative viability (VX-11e + OSI-027; first compound 4 µM) was 0.132.

SK-MES-1 gave a relative viability (VX-11e; 0.04 µM) of 1.06, a relative viability (VX-11e; 0.1265 µM) of 0.921 and a relative viability (VX-11e; 0.4 µM) of 0.886. It also gave a relative viability (VX-11e; 1.265 µM) of 0.748, a relative viability (VX-11e; 4 µM) of 0.35 and a relative viability (VX-11e + Palbociclib; first compound 0.04 µM) of 0.326. It also gave a relative viability (VX-11e + Palbociclib; first compound 0.1265 µM) of 0.329, a relative viability (VX-11e + Palbociclib; first compound 0.4 µM) of 0.355 and a relative viability (VX-11e + Palbociclib; first compound 1.265 µM) of 0.327. It also gave a relative viability (VX-11e + Palbociclib; first compound 4 µM) of 0.244, a relative viability (VX-11e + Foretinib; first compound 0.04 µM) of 1.03 and a relative viability (VX-11e + Foretinib; first compound 0.1265 µM) of 0.881. It also gave a relative viability (VX-11e + Foretinib; first compound 0.4 µM) of 0.857, a relative viability (VX-11e + Foretinib; first compound 1.265 µM) of 1.02 and a relative viability (VX-11e + Foretinib; first compound 4 µM) of 0.419. The relative viability (VX-11e + OSI-027; first compound 0.04 µM) was 0.585, the relative viability (VX-11e + OSI-027; first compound 0.1265 µM) was 0.436 and the relative viability (VX-11e + OSI-027; first compound 0.4 µM) was 0.632. The relative viability (VX-11e + OSI-027; first compound 1.265 µM) was 0.552 and the relative viability (VX-11e + OSI-027; first compound 4 µM) was 0.185.

SW 900 showed a relative viability (VX-11e; 0.04 µM) of 0.722, a relative viability (VX-11e; 0.1265 µM) of 0.768 and a relative viability (VX-11e; 0.4 µM) of 0.182. The relative viability (VX-11e; 1.265 µM) was 0.473, the relative viability (VX-11e; 4 µM) was 0.541 and the relative viability (VX-11e + Palbociclib; first compound 0.04 µM) was 0.421. For the same cell line, the relative viability (VX-11e + Palbociclib; first compound 0.1265 µM) was 0.422, the relative viability (VX-11e + Palbociclib; first compound 1.265 µM) was 0.518 and the relative viability (VX-11e + Palbociclib; first compound 4 µM) was 0.482. It also gave a relative viability (VX-11e + Foretinib; first compound 0.04 µM) of 0.851, a relative viability (VX-11e + Foretinib; first compound 0.1265 µM) of 0.943 and a relative viability (VX-11e + Foretinib; first compound 0.4 µM) of 0.969. The relative viability (VX-11e + Foretinib; first compound 1.265 µM) was 0.794, the relative viability (VX-11e + Foretinib; first compound 4 µM) was 0.519 and the relative viability (VX-11e + OSI-027; first compound 0.04 µM) was 0.276. It also gave a relative viability (VX-11e + OSI-027; first compound 0.1265 µM) of 0.448, a relative viability (VX-11e + OSI-027; first compound 0.4 µM) of 0.12 and a relative viability (VX-11e + OSI-027; first compound 1.265 µM) of 0.304. The relative viability (VX-11e + OSI-027; first compound 4 µM) was 0.246.

Cell Line SW 1573 has a relative viability (VX-11e; 0.04 µM) of 0.989, a relative viability (VX-11e; 0.1265 µM) of 0.993 and a relative viability (VX-11e; 0.4 µM) of 0.704. For the same cell line, the relative viability (VX-11e; 1.265 µM) was 0.778, the relative viability (VX-11e; 4 µM) was 0.487 and the relative viability (VX-11e + Palbociclib; first compound 0.1265 µM) was 0.342. For the same cell line, the relative viability (VX-11e + Palbociclib; first compound 0.4 µM) was 0.351, the relative viability (VX-11e + Palbociclib; first compound 1.265 µM) was 0.259 and the relative viability (VX-11e + Palbociclib; first compound 4 µM) was 0.15. The relative viability (VX-11e + Foretinib; first compound 0.04 µM) was 0.947, the relative viability (VX-11e + Foretinib; first compound 0.1265 µM) was 0.902 and the relative viability (VX-11e + Foretinib; first compound 0.4 µM) was 0.78. The relative viability (VX-11e + Foretinib; first compound 1.265 µM) was 0.86, the relative viability (VX-11e + Foretinib; first compound 4 µM) was 0.708 and the relative viability (VX-11e + OSI-027; first compound 0.04 µM) was 0.52. The relative viability (VX-11e + OSI-027; first compound 0.1265 µM) was 0.561, the relative viability (VX-11e + OSI-027; first compound 0.4 µM) was 0.708 and the relative viability (VX-11e + OSI-027; first compound 1.265 µM) was 0.402. It also gave a relative viability (VX-11e + OSI-027; first compound 4 µM) of 0.194.

UMC-11 showed a relative viability (VX-11e; 0.04 µM) of 0.757, a relative viability (VX-11e; 0.1265 µM) of 0.909 and a relative viability (VX-11e; 0.4 µM) of 0.962. For the same cell line, the relative viability (VX-11e; 1.265 µM) was 0.791, the relative viability (VX-11e; 4 µM) was 0.889 and the relative viability (VX-11e + Palbociclib; first compound 0.1265 µM) was 0.309. The relative viability (VX-11e + Palbociclib; first compound 0.4 µM) was 0.283, the relative viability (VX-11e + Palbociclib; first compound 1.265 µM) was 0.267 and the relative viability (VX-11e + Palbociclib; first compound 4 µM) was 0.318. It also gave a relative viability (VX-11e + Foretinib; first compound 0.04 µM) of 1.05, a relative viability (VX-11e + Foretinib; first compound 0.1265 µM) of 0.946 and a relative viability (VX-11e + Foretinib; first compound 0.4 µM) of 0.986. The relative viability (VX-11e + Foretinib; first compound 1.265 µM) was 0.976, the relative viability (VX-11e + Foretinib; first compound 4 µM) was 0.905 and the relative viability (VX-11e + OSI-027; first compound 0.04 µM) was 0.36. For the same cell line, the relative viability (VX-11e + OSI-027; first compound 0.1265 µM) was 0.435, the relative viability (VX-11e + OSI-027; first compound 0.4 µM) was 0.41 and the relative viability (VX-11e + OSI-027; first compound 1.265 µM) was 0.379. The relative viability (VX-11e + OSI-027; first compound 4 µM) was 0.428.
